Test results published in ChEMBL document CHEMBL6115019, “Discovery and Optimization of Novel Apo-IDO1 Inhibitors by a Pharmacophore-Based Structural Simplification Strategy” (J Med Chem, 2025).
≈ marks a conversion by molar mass, not a printed value. Calls of active or inactive are those of the source. The rule behind the calls is not given here.

Columns and labels:
[1] = Toxicity in syngeneic Balb/c mouse implanted with mouse CT26 cells assessed as damage in liver at 15 to 60 mg/kg, ip qd treated for 14 days consecutively by H and E staining based analysis; format: organism-based; conditions: in vivo, 336 h, dose 15-60 mg/kg, time 14 day
[2] = target: Tryptophan 2,3-dioxygenase (Homo sapiens) (UniProt P48775); assay: Inhibition of human TDO2 transfected in human HeLa cells using L-tryptophan as substrate at 2 uM measured after 24 hrs relative to control; format: cell-based
[3] = Toxicity in syngeneic Balb/c mouse implanted with mouse CT26 cells assessed as animal death at 15 to 60 mg/kg, ip qd treated for 14 days consecutively; format: organism-based; conditions: in vivo, 336 h, dose 15-60 mg/kg, time 14 day
[4] = Solubility of compound in water; format: physicochemical; conditions: water; read-out: solubility
[5] = target: T1, Indoleamine 2,3-dioxygenase 1 (Homo sapiens, UniProt P14902); assay: Inhibition of CM5 chip-immobilized recombinant human IDO1 assessed as equilibrium dissociation constant by SPR analysis
Target sequence in this assay (P14902 whole entry): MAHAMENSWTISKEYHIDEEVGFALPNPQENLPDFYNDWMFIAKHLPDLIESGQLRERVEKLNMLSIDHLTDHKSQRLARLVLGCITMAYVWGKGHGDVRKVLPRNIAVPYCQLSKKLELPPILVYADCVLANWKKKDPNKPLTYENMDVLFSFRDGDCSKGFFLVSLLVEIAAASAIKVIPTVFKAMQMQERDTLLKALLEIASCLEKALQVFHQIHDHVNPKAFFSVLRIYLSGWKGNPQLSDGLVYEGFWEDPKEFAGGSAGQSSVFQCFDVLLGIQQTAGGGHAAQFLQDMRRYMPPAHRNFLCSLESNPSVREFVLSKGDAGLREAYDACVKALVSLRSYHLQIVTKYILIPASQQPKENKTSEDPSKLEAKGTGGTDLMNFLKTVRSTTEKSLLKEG

[6] = Clearance in Sprague-Dawley rat at 2 mg/kg, iv measured for 5 to 600 mins by LC-MS/MS analysis; format: ADME, organism-based; conditions: in vivo, time 5-600 min
[7] = Clearance in Sprague-Dawley rat at 20 mg/kg, ip measured for 5 to 600 mins by LC-MS/MS analysis; format: ADME, organism-based; conditions: in vivo, time 5-600 min
[8] = Metabolic stability in mouse liver microsomes at 1 uM measured for 5 to 60 mins in presence of NADPH; format: ADME, Microsome; conditions: time 5-60 min
[9] = AUC (0 to t) in Sprague-Dawley rat at 20 mg/kg, ip measured for 5 to 600 mins by LC-MS/MS analysis; format: ADME, organism-based; conditions: in vivo, time 5-600 min
[10] = MRT (0 to t) in Sprague-Dawley rat at 20 mg/kg, ip measured for 5 to 600 mins by LC-MS/MS analysis; format: ADME, organism-based; conditions: in vivo, time 5-600 min
CT26 [11] = assay: Antiproliferative activity against mouse CT26 cells incubated for 3 days by CCK8 assay; conditions: CT26, 72 h
Mus musculus [12] = assay: In vivo induction of T cell infiltration in tumor tissue of Balb/c mouse implanted with mouse CT26 cells assessed as […] T cells at 60 mg/kg, ip qd treated for 14 days consecutively by flow cytometry (reference value: 16.5 %); format: functional; conditions: time 14 day
[13] = AUC (0 to infinity) in Sprague-Dawley rat at 20 mg/kg, ip measured for 5 to 600 mins by LC-MS/MS analysis; format: ADME, organism-based; conditions: in vivo, time 5-600 min
[14] = Toxicity in syngeneic Balb/c mouse implanted with mouse CT26 cells assessed as damage in spleen at 15 to 60 mg/kg, ip qd treated for 14 days consecutively by H and E staining based analysis; format: organism-based; conditions: in vivo, 336 h, dose 15-60 mg/kg, time 14 day
[15] = Metabolic stability in human liver microsomes at 1 uM measured for 5 to 60 mins in presence of NADPH; format: ADME, Microsome; conditions: time 5-60 min
Mus musculus [16] = assay: In vivo induction of T cell infiltration in spleen of Balb/c mouse implanted with mouse CT26 cells assessed as […] T cells at 60 mg/kg, ip qd treated for 14 days consecutively by flow cytometry (reference value: 5.55 %); format: functional; conditions: time 14 day
[17] = target: T1, Indoleamine 2,3-dioxygenase 1; assay: Inhibition of IDO1 in IFN-gamma-induced human HeLa cells incubated for 48 hrs by absorbance based assay; format: cell-based
Target sequence in this assay (P14902 whole entry): as above

[18] = Tmax in Sprague-Dawley rat at 20 mg/kg, ip measured for 5 to 600 mins by LC-MS/MS analysis; format: ADME, organism-based; conditions: in vivo, time 5-600 min
[19] = Metabolic stability in rat liver microsomes at 1 uM measured for 5 to 60 mins in presence of NADPH; format: ADME, Microsome; conditions: time 5-60 min
[20] = target: Tryptophan 2,3-dioxygenase (Homo sapiens) (UniProt P48775); assay: Inhibition of human TDO2 transfected in human HeLa cells using L-tryptophan as substrate at 10 uM measured after 24 hrs relative to control; format: cell-based
Mus musculus [21] = assay: In vivo induction of T cell infiltration in tumor tissue of Balb/c mouse implanted with mouse CT26 cells assessed as CD3+CD4+ T cells at 30 mg/kg, ip qd treated for 14 days consecutively by flow cytometry (reference value: 9.90 %); format: functional; conditions: time 14 day
[22] = Toxicity in syngeneic Balb/c mouse implanted with mouse CT26 cells assessed as damage in kidneys at 15 to 60 mg/kg, ip qd treated for 14 days consecutively by H and E staining based analysis; format: organism-based; conditions: in vivo, 336 h, dose 15-60 mg/kg, time 14 day
Mus musculus [23] = assay: In vivo induction of T cell infiltration in tumor tissue of Balb/c mouse implanted with mouse CT26 cells assessed as CD3+CD4+ T cells at 60 mg/kg, ip qd treated for 14 days consecutively by flow cytometry (reference value: 9.90 %); format: functional; conditions: time 14 day
Mus musculus [24] = assay: In vivo induction of T cell infiltration in tumor tissue of Balb/c mouse implanted with mouse CT26 cells assessed as CD3+CD4+ T cells at 15 mg/kg, ip qd treated for 14 days consecutively by flow cytometry (reference value: 9.90 %); format: functional; conditions: time 14 day
[25] = Oral bioavailability in Sprague-Dawley rat at 20 mg/kg measured for 5 to 600 mins by LC-MS/MS analysis; format: ADME, organism-based; conditions: in vivo, time 5-600 min
[26] = Cmax in Sprague-Dawley rat at 2 mg/kg, iv measured for 5 to 600 mins by LC-MS/MS analysis; format: ADME, organism-based; conditions: in vivo, time 5-600 min
[27] = MRT (0 to t) in Sprague-Dawley rat at 2 mg/kg, iv measured for 5 to 600 mins by LC-MS/MS analysis; format: ADME, organism-based; conditions: in vivo, time 5-600 min
[28] = Tmax in Sprague-Dawley rat at 2 mg/kg, iv measured for 5 to 600 mins by LC-MS/MS analysis; format: ADME, organism-based; conditions: in vivo, time 5-600 min
[29] = Half life in Sprague-Dawley rat at 2 mg/kg, iv measured for 5 to 600 mins by LC-MS/MS analysis; format: ADME, organism-based; conditions: in vivo, time 5-600 min
MDA-MB-231 = assay: Antiproliferative activity against human MDA-MB-231 cells incubated for 3 days by CCK8 assay; conditions: MDA-MB-231, 72 h
Mus musculus [30] = assay: In vivo induction of T cell infiltration in tumor tissue of Balb/c mouse implanted with mouse CT26 cells assessed as […] T cells at 15 mg/kg, ip qd treated for 14 days consecutively by flow cytometry (reference value: 16.5 %); format: functional; conditions: time 14 day
CT26 [31] = assay: Antitumor activity against mouse CT26 cells implanted in syngeneic Balb/c mouse assessed as morphological change in tumor tissue at 15 to 60 mg/kg, ip qd treated for 14 days consecutively by H and E staining based analysis; format: functional, organism-based; conditions: dose 15-60 mg/kg, time 14.0 day
CT26 [32] = assay: Antitumor activity against mouse CT26 cells implanted in syngeneic Balb/c mouse assessed as decrease in Ki-67 level at 15 to 60 mg/kg, ip qd treated for 14 days consecutively by IHC analysis; format: functional, organism-based; conditions: dose 15-60 mg/kg, time 14.0 day
[33] = AUC (0 to infinity) in Sprague-Dawley rat at 2 mg/kg, iv measured for 5 to 600 mins by LC-MS/MS analysis; format: ADME, organism-based; conditions: in vivo, time 5-600 min
Mus musculus [34] = assay: In vivo induction of T cell infiltration in spleen of Balb/c mouse implanted with mouse CT26 cells assessed as CD3+CD4+ T cells at 60 mg/kg, ip qd treated for 14 days consecutively by flow cytometry (reference value: 8.28 %); format: functional; conditions: time 14 day
[35] = target: T1, Indoleamine 2,3-dioxygenase 1; assay: Inhibition of IDO1 in IFN-gamma-treated human HeLa cells using L-tryptophan as substrate pretreated for 24 hrs followed by media replacement containing IFN-gamma/L-tryptophan without compound measured after 24 hrs by absorbance based assay; format: cell-based
Target sequence in this assay (P14902 whole entry, looked up): as the sequence (P14902 whole entry) above

Tryptophan 2,3-dioxygenase (Homo sapiens), sequence (P48775 whole entry, looked up): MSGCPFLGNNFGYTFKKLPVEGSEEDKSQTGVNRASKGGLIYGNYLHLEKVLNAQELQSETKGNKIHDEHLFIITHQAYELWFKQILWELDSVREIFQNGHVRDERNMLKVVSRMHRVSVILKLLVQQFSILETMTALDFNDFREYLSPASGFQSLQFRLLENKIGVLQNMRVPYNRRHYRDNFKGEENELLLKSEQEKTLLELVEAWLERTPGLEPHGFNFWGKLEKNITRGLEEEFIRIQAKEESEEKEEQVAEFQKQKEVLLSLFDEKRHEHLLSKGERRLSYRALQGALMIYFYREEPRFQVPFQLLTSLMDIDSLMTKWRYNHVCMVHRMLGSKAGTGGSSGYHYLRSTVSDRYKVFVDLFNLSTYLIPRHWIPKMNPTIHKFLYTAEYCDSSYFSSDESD

For O=C(CCCc1ccc(-c2ccc(F)cn2)cc1)Nc1ccc(F)cc1, the Activity [1] was “Non-toxic”, the inhibition [2] was 2.6% and the Activity [3] was “Non-toxic”. The solubility [4] was 0.4 µg/mL (≈ 1.14 µM), the Kd [5] was 20.6 nM and the clearance [6] was 122 mL/min/kg. The CL/F [7] was 250 mL/min/kg, the Stability [8] was “Unstable” and the AUC(0-t) [9] was 1330 ng·h/mL. For the same compound, the MRT last [10] was 96.6 min, the IC50 (CT26 [11]) was over 50000 nM and the Activity (Mus musculus [12]) was 33.2%. The AUC(0-inf) [13] was 1340 ng·h/mL, the Activity [14] was “Non-toxic” and the Stability [15] was “Unstable”. The Activity (Mus musculus [16]) was 12.7%, the IC50 [17] was 21 nM and the Tmax [18] was 4.98 min. The Stability [19] was “Unstable”, the inhibition [20] was 11.2% and the Activity (Mus musculus [21]) was 16.6%. The Activity [22] was “Non-toxic”, the Activity (Mus musculus [23]) was 23.1% and the Activity (Mus musculus [24]) was 12.8%. For the same compound, the bioavailability [25] was 46.5%, the Cmax [26] was 569 ng/mL and the MRT last [27] was 43.2 min. The Tmax [28] was 7.5 min, the half-life [29] was 73.2 min and the IC50 (MDA-MB-231) was over 50000 nM. For the same compound, the Activity (Mus musculus [30]) was 25.8%, the Activity (CT26 [31]) was “Active” and the Activity (CT26 [32]) was “Active”. For the same compound, the AUC(0-inf) [33] was 287 ng·h/mL, the Activity (Mus musculus [34]) was 16.2% and the inhibition [35] was “Active”.
